# Test results as given in PubChem BioAssay AID2060619 (Molecular Pharmacology Branch, DTP, NCI, 2025).
# “And” between values parts separate entries of the source, which are not always exact repeats. Equal values may be shown once.
# Test system: 323965-272-R-J2-PDC complex spheroid viability
# Assay: Anticancer human tumor 323965-272-R-J2-PDC patient-derived pancreatic carcinoma cell line growth inhibition [CLK]
# Conditions: for viability, T/C: stronger effect = lower value
# Excerpt: A high-throughput screen of multi-cell type tumor spheroids was designed to identify active combinations of […] and targeted small molecules. Complex spheroids include a stromal component modeled by human endothelial cells (HUVEC) and fibroblasts modeled by human mesenchymal stem cells (MSCs). The concentration ranges selected for each drug and investigational agent were based upon clinically achievable concentrations if the clinical Cmax of the agent was known.
# Compounds. The drugs and investigational agents: cirtuvivint (SM08502; NSC835563), CC-671 (NSC850746), vemurafenib (NSC761431), tapotoclax (NSC804041), sotorasib (NSC818433), adagrasib (NSC831453), MRTX-1133 (NSC836407), BAY2416964 (NSC825713), copanlisib (NSC816437), inavolisib (NSC800729), abemaciclib (NSC768073), osimertinib (NSC779217), entinostat (NSC756642), eltanexor (KPT-8602, NSC794443), venetoclax (NSC766270), ceralasertib (NSC777638), bortezomib (NSC756655), olaparib (NSC753686), talazoparib (NSC767125), alisertib (NSC759677), peposertib (NSC802822), gemcitabine (NSC613327), 5-fluorouracil (NSC19893), SN-38 (NSC673596), oxaliplatin (NSC266046), paclitaxel (NSC125973), and doxorubicin (NSC123127), were obtained from the National Cancer Institute (NCI) Developmental Therapeutics Program Chemical Repository. The FDA-approved anticancer drug set is available from the Developmental Therapeutics Program at https://dtp.cancer.gov/organization/dscb/obtaining/available plates.htm. […] The stock solutions were prepared in dimethyl sulfoxide (DMSO, Sigma-Aldrich, St. Louis, MO, cat. D2650), except for the platinum complexes which were prepared in saline (Quality Biological, Gaithersburg, MD, cat. 114-055-101), at 800-fold the tested concentration and stored at -70 degrees C prior to their use. All drugs and investigational agents were tested over a range starting from a high concentration at or near the clinical Cmax and decreasing in half-log increments. If the clinical Cmax for an agent had not been determined, the highest concentration tested was 10 microM.
# Cell Culture. All cells were maintained in an incubator at 37 degrees C and 5% CO2 with 95% humidity. The PDC lines were cultured according to standard operating procedures established by the NCI PDMR. Briefly, all PDCs were thawed and cultured in Matrigel-coated flasks prepared with a working solution of 1X Ham's F-12 nutrient mix, without supplementation (Invitrogen, Waltham, MA, cat. 11765054), 100 U/mL penicillin-streptomycin (Invitrogen, cat. 15140122), and 2.5% Matrigel (Corning Inc., Corning, NY, cat. 354248) for the first three passages. The 947758-054-R-J2-PDC line was cultured in 6B/Colon 1A media, which includes advanced DMEM/F-12 (Thermo Fisher Scientific, cat. 12634028), 10 mM HEPES (Thermo Fisher Scientific, cat. 15630080), 1X GlutaMAX supplement (Thermo Fisher Scientific, cat. 35050061), 0.1 mg/mL primocin (InvivoGen, cat. ant-pm-2), 10% defined fetal bovine serum, heat inactivated (HyClone Laboratories Inc., cat. SH30070.03HI), 1.25 mM N-Acetyl-L-cysteine (Sigma-Aldrich, cat. A9165), 10 mM nicotinamide (Sigma-Aldrich, cat. N0636), 1X B-27 supplement (Thermo Fisher Scientific, cat. 17504044), 1X N-2 supplement (Thermo Fisher Scientific, cat. 17502048), and 10 microM Y-27632 dihydrochloride (Tocris Bioscience, cat. 1254). The 876862-298-R-J1-PDC was cultured in 6E media, which includes all 6B/Colon 1A media components plus 50% L-WRN conditioned media (ATCC, cat. CRL-3276), 50 ng/mL recombinant human EGF recombinant protein (hEGF; Thermo Fisher Scientific, cat. PHG0311), 10 ng/mL recombinant human fibroblast growth factor 10 (hGFG-10; PeproTech, cat. 100-26), 1 ng/mL recombinant human fibroblast growth factor 2 (hFGF-2; PeproTech, cat. 100-18B), and 1 µM prostaglandin E2 (PGE2; Tocris, cat. 2296). The 227483-062-R1-J1-PDC line was cultured in Panc media, containing all 6E components except hFGF-2, with the addition of 500 nM SB-431542 (Selleckchem, cat. S1067) and 10 nM gastrin (Tocris, cat. 3006). […]
# 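Also: spheroids exposed to agents for seven days before readout.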
# 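For viability, T/C in this document: percent of DMSO vehicle control wells so 100% = untreated growth.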
IC50 (curve of compound),SMILES,"viability, T/C (compound 0.0316 µM)","viability, T/C (compound 0.1 µM)","viability, T/C (compound 0.316 µM)","viability, T/C (compound 1 µM)","viability, T/C (compound 3.16 µM)","viability, T/C (compound 10 µM)",also measured
9.34 µM and > 10 µM,C#Cc1c(F)ccc2cc(O)cc(-c3ncc4c(N5CC6CCC(C5)N6)nc(OCC56CCCN5CC(F)C6)nc4c3F)c12 (stereo not drawn),101% and 111%,91.2% and 95.5%,106% and 98.5%,81.5% and 86.9%,63.2% and 75.6%,48.4% and 55.3%,
3.99 µM and > 10 µM,C=C(F)C(=O)N1CCN(c2nc(OCC3CCCN3C)nc3c2CCN(c2cccc4cccc(Cl)c24)C3)CC1CC#N (stereo not drawn),64.5% and 64.8%,50.8% and 64.2%,48.9% and 63%,69.4% and 61.5%,66.8% and 77.9%,,
> 10 µM,C=CC(=O)N1CCN(c2nc(=O)n(-c3c(C)ccnc3C(C)C)c3nc(-c4c(O)cccc4F)c(F)cc23)C(C)C1 (stereo not drawn),75.1% and 73.7%,60.8% and 66.9%,55.2% and 68.3%,67.1% and 84.3%,76% and 71.3%,62.9% and 66.1%,
> 0.3 µM,C=CC(=O)Nc1cc(Nc2nccc(-c3cn(C)c4ccccc34)n2)c(OC)cc1N(C)CCN(C)C,,,,,,,"viability, T/C (compound 0.000949 µM): 103% and 92.1%; viability, T/C (compound 0.003 µM): 80.7% and 91.7%; viability, T/C (compound 0.00949 µM): 97.6% and 86%; viability, T/C (compound 0.03 µM): 90.5% and 83.2%; viability, T/C (compound 0.0949 µM): 81.3% and 78.3%; viability, T/C (compound 0.3 µM): 87.5% and 75.6%"
< 0.0316 µM,CC(=O)O[C@H]1C(=O)[C@@]2(C)[C@H]([C@H](OC(=O)c3ccccc3)[C@]3(O)C[C@H](OC(=O)[C@H](O)[C@@H](NC(=O)c4ccccc4)c4ccccc4)C(C)=C1C3(C)C)[C@]1(OC(C)=O)CO[C@@H]1C[C@@H]2O,35.3% and 32%,36.8% and 34.2%,33.2% and 32.9%,34.6% and 33.4%,39.6% and 35.1%,35.9% and 36.3%,
0.00454 µM and 0.00298 µM,CC(C)CC(NC(=O)C(Cc1ccccc1)NC(=O)c1cnccn1)B(O)O (stereo not drawn),,,,,,,"viability, T/C (compound 0.000949 µM): 107% and 115%; viability, T/C (compound 0.003 µM): 75.1% and 49.5%; viability, T/C (compound 0.00949 µM): 5.4% and 2.55%; viability, T/C (compound 0.03 µM): 0.66% and 1.05%; viability, T/C (compound 0.0949 µM): 0.26% and 0.62%; viability, T/C (compound 0.3 µM): 2% and 3.78%"
> 10 µM,CC(CO)NC(=O)c1cc(-c2ccc(Cl)cc2)nn(-c2cnn(C)c2)c1=O (stereo not drawn),93.7% and 115%,92.6% and 98.9%,94.8% and 101%,91.8% and 110%,106% and 116%,91.5% and 105%,
> 10 µM,CC(Nc1ccc2c(c1)OCCn1cc(N3C(=O)OCC3C(F)F)nc1-2)C(N)=O (stereo not drawn),94.2% and 96.6%,89.2% and 83.2%,76.2% and 66.7%,67.8% and 65.5%,63.1% and 68.3%,50.9% and 47.6%,
5.61 µM and 5.54 µM,CC1(C)CCC(CN2CCN(c3ccc(C(=O)NS(=O)(=O)c4ccc(NCC5CCOCC5)c([N+](=O)[O-])c4)c(Oc4cnc5[nH]ccc5c4)c3)CC2)=C(c2ccc(Cl)cc2)C1,97.7% and 104%,103% and 96.6%,103% and 100%,95.6% and 102%,93.1% and 89.5%,6.41% and 8.48%,
2.07 µM and 1.96 µM,CC1COCCN1c1cc(C2(S(C)(=N)=O)CC2)nc(-c2ccnc3[nH]ccc23)n1 (stereo not drawn),103% and 106%,99.9% and 91.9%,90.5% and 90.1%,70.1% and 62.4%,37.1% and 40.2%,31.6% and 31%,
> 10 µM,CCCS(=O)(=O)Nc1ccc(F)c(C(=O)c2c[nH]c3ncc(-c4ccc(Cl)cc4)cc23)c1F,105% and 112%,105% and 113%,112% and 123%,110% and 105%,116% and 99%,84.8% and 79.7%,
> 1 µM,CCN1CCN(Cc2ccc(Nc3ncc(F)c(-c4cc(F)c5nc(C)n(C(C)C)c5c4)n3)nc2)CC1,81.2% and 68.3%,67.5% and 69.9%,73.3% and 68.3%,72.3% and 68.7%,,,"viability, T/C (compound 0.00316 µM): 91.3% and 105%; viability, T/C (compound 0.01 µM): 95.6% and 95%"
0.0102 µM and 0.00851 µM,CCc1c2c(nc3ccc(O)cc13)-c1cc3c(c(=O)n1C2)COC(=O)[C@]3(O)CC,34.2% and 29.5%,35.9% and 30.6%,26.4% and 30.6%,26.2% and 20.2%,,,"viability, T/C (compound 0.00316 µM): 90.2% and 92.5%; viability, T/C (compound 0.01 µM): 49.5% and 42.7%"
,CN1CCN(c2cc(C(=O)Nc3cc4cc(-c5cnn(C)c5)ccc4cn3)ccn2)CC1,98.9% [middle of 12 runs],70% [middle of 12 runs],28.1% [middle of 12 runs],4.53% [middle of 12 runs],4.75% [middle of 12 runs],4.22% [middle of 11 runs],"IC50 (compound alone, run of 08/14/2023): 174 nM [middle of 10 runs]"
1.64 µM and 3.65 µM,COC1C=CCC(C)C(C)S(=O)(=O)NC(=O)c2ccc3c(c2)N(CC2CCC21)CC1(CCCc2cc(Cl)ccc21)CO3 (stereo not drawn),111% and 91.1%,108% and 91.9%,77.9% and 80.8%,61.1% and 61.5%,37.5% and 61%,10.5% and 25.6%,
0.0836 µM and 0.0481 µM,COc1c(OCCCN2CCOCC2)ccc2c3n(c(=NC(=O)c4cnc(N)nc4)nc12)CCN3,62% and 54.2%,46.6% and 45.2%,38.4% and 31%,27.7% and 21.9%,,,"viability, T/C (compound 0.00316 µM): 98.5% and 103%; viability, T/C (compound 0.01 µM): 80.8% and 72.1%"
> 0.1 µM,Cn1ncnc1[C@H]1c2n[nH]c(=O)c3cc(F)cc(c23)N[C@@H]1c1ccc(F)cc1,114% and 94.7%,83.6% and 74.6%,,,,,"viability, T/C (compound 0.000316 µM): 108% and 106%; viability, T/C (compound 0.001 µM): 108% and 97.8%; viability, T/C (compound 0.00316 µM): 101% and 105%; viability, T/C (compound 0.01 µM): 104% and 99.3%"
1.69 µM and 1.06 µM,NC(=O)C(=Cn1cnc(-c2cc(C(F)(F)F)cc(C(F)(F)F)c2)n1)c1cncnc1,,,,,,,"viability, T/C (compound 0.00949 µM): 97.4% and 105%; viability, T/C (compound 0.03 µM): 109% and 91.9%; viability, T/C (compound 0.0949 µM): 74.2% and 75.9%; viability, T/C (compound 0.3 µM): 64.3% and 66.8%; viability, T/C (compound 0.949 µM): 69.2% and 61.7%; viability, T/C (compound 3 µM): 38.3% and 28.5%"
9.39 µM and 6.89 µM,Nc1ccccc1NC(=O)c1ccc(CNC(=O)OCc2cccnc2)cc1,115% and 110%,103% and 104%,101% and 95.5%,89.1% and 86.3%,72.6% and 61.8%,47.9% and 43.9%,
< 0.0316 µM,Nc1ccn(C2OC(CO)C(O)C2(F)F)c(=O)n1 (stereo not drawn),30.7% and 33.9%,35.3% and 38.5%,30% and 29.5%,37.3% and 32.3%,32.7% and 31.5%,28.6% and 33.3%,
> 10 µM,O=C(c1cc(Cc2n[nH]c(=O)c3ccccc23)ccc1F)N1CCN(C(=O)C2CC2)CC1,105% and 107%,103% and 102%,100% and 98.1%,103% and 90.2%,108% and 107%,84.3% and 81.5%,
> 10 µM,O=c1[nH]cc(F)c(=O)[nH]1,116% and 95.3%,105% and 91.3%,111% and 103%,96.9% and 96.8%,67.9% and 76.6%,51.1% and 52.5%,
